Columns and labels:
[1] = molecular target: T1, human muscarinic M2 receptor (Homo sapiens, UniProt P08172); experiment: Phospho-ERK1/2 assay, muscarinic M2; format: cell-based; details: for Emax: CHO, read-out: % Emax cf. ACh (M2)
T1 sequence (P08172 1-466): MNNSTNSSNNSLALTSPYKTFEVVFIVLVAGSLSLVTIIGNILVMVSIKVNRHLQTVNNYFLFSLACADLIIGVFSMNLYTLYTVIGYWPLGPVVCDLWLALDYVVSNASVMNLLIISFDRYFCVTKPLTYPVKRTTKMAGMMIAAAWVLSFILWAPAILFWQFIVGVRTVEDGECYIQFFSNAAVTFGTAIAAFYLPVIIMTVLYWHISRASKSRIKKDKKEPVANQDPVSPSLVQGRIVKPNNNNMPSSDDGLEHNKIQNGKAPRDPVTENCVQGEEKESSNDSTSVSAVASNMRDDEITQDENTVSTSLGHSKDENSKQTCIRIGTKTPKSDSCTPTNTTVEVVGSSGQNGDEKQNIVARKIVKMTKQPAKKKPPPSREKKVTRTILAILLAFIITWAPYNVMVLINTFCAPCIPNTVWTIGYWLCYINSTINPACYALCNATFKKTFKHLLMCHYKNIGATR
Procedure, shortened: (§1)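 Read-out: AlphaScreen SureFire signal for phospho-ERK1/2 in lysates of stably transfected CHO cells, read after 2 h in the dark. Cells were serum-starved overnight and given agonist for 5 min at 37 °C. Values are pEC50 and Emax.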

[2] = molecular target: T2, human muscarinic M3 receptor (Homo sapiens, UniProt P20309); experiment: Phospho-ERK1/2 assay, muscarinic M3; format: cell-based; details: for Emax: CHO, read-out: % Emax cf. ACh (M3)
T2 construct: expressed in transfected cells
Procedure, shortened: as §1

[3] = molecular target: T3, human muscarinic M4 receptor (Homo sapiens, UniProt P08173); experiment: Phospho-ERK1/2 assay, muscarinic M4; format: cell-based; details: for Emax: CHO, read-out: % Emax cf. ACh (M4)
T3 construct: expressed in transfected cells
T3 sequence (P08173 1-479): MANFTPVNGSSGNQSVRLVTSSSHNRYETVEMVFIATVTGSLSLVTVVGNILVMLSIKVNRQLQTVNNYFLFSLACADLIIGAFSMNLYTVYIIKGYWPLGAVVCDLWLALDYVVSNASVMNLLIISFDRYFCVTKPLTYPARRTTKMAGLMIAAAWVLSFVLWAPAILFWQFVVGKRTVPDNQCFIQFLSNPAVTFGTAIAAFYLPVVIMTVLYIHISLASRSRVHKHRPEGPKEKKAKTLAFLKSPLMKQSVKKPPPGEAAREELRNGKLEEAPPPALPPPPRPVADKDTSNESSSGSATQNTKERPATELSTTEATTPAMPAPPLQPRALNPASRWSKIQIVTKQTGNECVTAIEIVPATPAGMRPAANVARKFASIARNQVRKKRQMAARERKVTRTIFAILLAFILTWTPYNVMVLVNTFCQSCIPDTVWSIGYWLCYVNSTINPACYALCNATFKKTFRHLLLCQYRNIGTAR
Procedure, shortened: as §1

Rats = experiment: Irwin profile; format: in vivo
Protocol: The method, which detects the principal effects of a test substance on behaviour and physiological function, follows that described by Irwin (1968) Psychopharmacologia. Cholinergic side effects are potentially visible in the behavioural readout of the Irwin assay, and an absence of these side effects can be taken as an indication that agonism of the M2 and M3 receptors is not significant in vivo.
Rats are administered the test substance or its vehicle, and are observed in simultaneous comparison with a control group. Behavioural modifications, physiological and neurotoxicity symptoms, rectal temperature and pupil diameter are recorded according to a standardized observation grid derived from that of Irwin. The grid contains the following items: death, convulsions, tremor, Straub tail, altered activity, jumping, abnormal gait (rolling, tiptoe), motor incoordination, altered abdominal muscle tone, loss of grasping, akinesia, catalepsy, loss of traction, loss of balance, fore-paw treading, writhing, piloerection, stereotypies (sniffing, chewing, head movements), head-twitches, scratching, altered respiration, aggression, altered fear/startle, altered reactivity to touch, ptosis, exophthalmia, loss of righting reflex, loss of corneal reflex, analgesia, defecation/diarrhea, salivation, lacrimation, rectal temperature (hypothermia/hyperthermia) and pupil diameter (myosis/mydriasis). […]

[4] = system: CA1 region of rat hippocampal slices; experiment: CA1 cell firing (fEPSP amplitude); format: cell-based; details: five point cumulative concentration-response, 6 slices averaged
Protocol: Rat hippocampal slices of […] thickness were cut in chilled (<4° C.) artificial cerebrospinal fluid (aCSF, composition in mM: NaCl 127, KCl 1.6, KH2PO4 1.24, MgSO4 1.3, CaCl2 2.4, NaHCO3 26 and D-glucose 10) using vibratome. Slices were maintained in oxygenated (95% O2/5% CO2) aCSF at room temperature for at least 1 hr prior to electrophysiological recording, after which they were transferred to an interface chamber and constantly perfused with warmed (30° C.) oxygenated aCSF at a flow rate of 1.5-3 ml·min−1. Schaffer collaterals were then stimulated (1-20 V, 0.1 ms pulse width, 0.033 Hz) with a concentric bipolar electrode to evoke field excitatory post synaptic potentials (fEPSPs) recorded from the stratum radiatum of the CA1 region.
Experiments were performed to examine the effect of compound compared to […] carbachol (CCh), on the amplitude of fEPSPs in the CA1 region of rat hippocampal slices. 1 μM CCh was initially applied until steady-state, followed by wash, before performing a five point cumulative concentration-response to compound. Each compound was tested on 6 slices and results averaged. Drug preparation; compound was dissolved in 100% DMSO at a stock concentration of 30 mM, and diluted according to requirements, carbamoylcholine chloride (CCh) was purchased from Sigma (Cat #C4382) and dissolved at a stock concentration of 1 mM in ddH2O.

T2 sequence (P20309 whole entry): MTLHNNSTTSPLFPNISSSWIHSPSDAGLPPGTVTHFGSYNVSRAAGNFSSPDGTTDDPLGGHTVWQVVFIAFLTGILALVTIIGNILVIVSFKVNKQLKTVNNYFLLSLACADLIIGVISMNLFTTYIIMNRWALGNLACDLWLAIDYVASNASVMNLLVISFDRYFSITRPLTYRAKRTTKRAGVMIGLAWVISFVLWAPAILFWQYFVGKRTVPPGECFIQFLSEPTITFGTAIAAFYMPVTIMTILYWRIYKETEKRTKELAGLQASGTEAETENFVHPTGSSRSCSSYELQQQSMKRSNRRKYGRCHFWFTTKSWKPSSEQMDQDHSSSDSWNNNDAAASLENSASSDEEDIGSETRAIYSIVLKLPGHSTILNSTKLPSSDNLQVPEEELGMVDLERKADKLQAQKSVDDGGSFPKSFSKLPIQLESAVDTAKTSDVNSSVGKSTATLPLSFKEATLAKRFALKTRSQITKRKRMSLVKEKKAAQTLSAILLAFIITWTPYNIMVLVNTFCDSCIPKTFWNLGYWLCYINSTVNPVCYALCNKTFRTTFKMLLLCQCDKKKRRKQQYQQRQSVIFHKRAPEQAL

CCOC(=O)N1CCCC(N2CCC(C(=O)NC3(C)CCC3)CC2)CC1 (stereo not shown) [Example 27, ethyl 4-(4-((1-methylcyclobutyl)carbamoyl)piperidin-1-yl)azepane-1-carboxylate]
EC50 [1]: > 20000 nM | Emax [1]: 56% | EC50 [2]: > 20000 nM | Emax [2]: 5% | EC50 [3]: 427 nM | Emax [3]: 88% | Irwin observation grid, effects on any parameter vs vehicle (Rats; 3, 10, 30 and 75 mg/kg po, 15, 30, 60, 120, 180 minutes and 24 hours): No effects on any parameter were observed at any time point | EC50 [4]: 1210 nM

CCOC(=O)N1CCC[C@H](N2CCC(C(=O)NC3(C)CCC3)CC2)CC1 [Example 65, ethyl (4S)-4-{4-[(1-methylcyclobutyl)carbamoyl]piperidin-1-yl)azepane-1-carbondate]
EC50 [1]: > 20000 nM | Emax [1]: 7% | EC50 [2]: > 20000 nM | Emax [2]: 11% | EC50 [3]: 224 nM | Emax [3]: 97% | Irwin observation grid, effects on any parameter vs vehicle (Rats; 5, 10, 20 and 40 mg/kg, 15, 30, 60, 120 and 180 minutes): No significant effects on any parameter were observed | EC50 [4]: 2050 nM

Reference: patent US10973832B2, “Muscarinic M1 receptor agonists” (Heptares Therapeutics Limited, priority 2011, dated 2021)
